Reference: US10913753B2, “Thienopyridine carboxamides as ubiquitin-specific protease inhibitors” (FORMA Therapeutics, Inc., priority 2016, dated 2021)

Key:
[1] = molecular target: USP28 (Homo sapiens (Human), UniProt Q96RU2); assay: Ubiquitin-Rhodamine 110 Assay for USP28 Activity; format: biochemical
Protocol: The assay was performed in a final volume of 20 μL in assay buffer containing 20 mM Tris-HCl (pH 8.0, (1M Tris-HCl, pH 8.0 solution; Corning 46-031-CM)), 2 mM CaCl2 (1M Calcium Chloride solution; Sigma #21114) 2 mM BME (2-Mercaptoethanol; Sigma 63689-25ML -F), 0.01% Prionex (0.22 μM filtered, Sigma #G-0411), and 0.01% Triton X-100. Stock compound solutions were stored at −20° C. as 10 mM in DMSO. Up to 1 month prior to the assay, 2 mM test compounds were pre-dispensed into assay plates (Black, low volume; Corning #3820) and frozen at −20° C. Prestamped assay plates were allowed to come to room temperature on the day of the assay. For the screen, 100 nL of 2 mM was pre-dispensed for a final screening concentration of 10 μM (DMSO(fc)=0.5%). […] Plates were incubated stacked for 90 minutes at room temperature before fluorescence was read on the Envision (Excitation at 485 nm and Emission at 535 nm; Perkin Elmer) or on the PheraSTAR (Excitation at 485 nm and Emission at 535 nm; BMG Labtech).
For follow-up studies, the assay was performed in a final volume of 15 μL in assay buffer containing 20 mM Tris-HCl (pH 8.0, (1M Tris-HCl, pH 8.0 solution; Corning 46-031-CM)), 3 mM BME (2-Mercaptoethanol; Sigma 63689-25ML-F), 0.03% BGG (0.22 μM filtered, Sigma, G7516-25G), and 0.01% Triton X-100 (Sigma, T9284-10L). Nanoliter quantities of either an 8-point or 10-point, 3-fold serial dilution in DMSO was pre-dispensed into assay plates (Perkin Elmer, ProxiPlate-384 F Plus) for a final test concentration of either 25 μM to 11 nM or 25 μM to 1.3 nM, respectively. Enzyme USP28, construct USP28 (USP28-5(1-1077)-TEV-6*His; LifeSensors) concentration and incubation times were optimized for the maximal signal-to -background while maintaining initial velocity conditions at a fixed substrate concentration. The final concentration of the enzyme in the assay was 75 pM. […] 5 μL of 2× enzyme was added to assay plates (pre-stamped with compound) preincubated with USP28 for 30 minutes and then 5 μL of 2× Ub-Rh110 was added to assay plates. Plates were incubated stacked for 20 min at room temperature before 5 μL of stop solution was added (final concentration of 10 mM citric acid (Sigma, 251275-500G)). Fluorescence was read on the Envision (Excitation at 485 nm and Emission at 535 nm; Perkin Elmer) or on the PheraSTAR (Excitation at 485 nm and Emission at 535 nm; BMG Labtech).
(§1) For both the USP28 and USP25 assay formats, data were reported as percent inhibition compared with control wells based on the following equation: % inh=1-((FLU-AveLow)/(AveHigh−AveLow)) where FLU=measured Fluorescence, AveLow=average Fluorescence of no enzyme control (n=16), and AveHigh=average Fluorescence of DMSO control (n=16). IC50 values were determined by curve fitting of the standard 4 parameter logistic fitting algorithm included in the Activity Base software package: IDBS XE Designer Model205. Data is fitted using the Levenburg Marquardt algorithm.

[2] = molecular target: USP25 (Homo sapiens (Human), UniProt Q9UHP3); assay: Ubiquitin-Rhodamine 110 Assay for USP25 Activity; format: biochemical
Protocol: The assay was performed in a final volume of 9 μL in assay buffer containing 20 mM Tris-HCl (pH 8.0, (1M Tris-HC1, pH 8.0 solution; Corning 46-031-CM)), 3 mM BME (2-Mercaptoethanol; Sigma 63689-25ML-F), 0.03% BGG (0.22 μM filtered, Sigma, G7516-25G), and 0.01% Triton X-100 (Sigma, T9284-10L). Nanoliter quantities of 10-point, 3-fold serial dilution in DMSO was pre-dispensed into 1536 assay plates (Corning, #3724BC) for a final test concentration of 25 μM to 1.3 nM, top to lowest dose, respectively. Enzyme USP25, construct USP25-His6, (Boston Biochem E-546). Concentration and incubation times were optimized for the maximal signal-to-background while maintaining initial velocity conditions at a fixed substrate concentration. The final concentration of the enzyme in the assay was 75 pM. […] 3 μL of 2× enzyme was added to assay plates (pre-stamped with compound) preincubated with […] for 30 minutes and then 3 μL of 2× Ub-Rh110 was added to assay plates. Plates were incubated for 45 minutes at room temperature before addition of 3 μL of stop solution (final concentration of 10 mM citric acid (Sigma, 251275-500G)). Fluorescence was read on the Envision (Excitation at 485 nm and Emission at 535 nm; Perkin Elmer) or on the PheraSTAR (Excitation at 485 nm and Emission at 535 nm; BMG Labtech).
as §1

Sequence of USP28 (Q96RU2 whole entry): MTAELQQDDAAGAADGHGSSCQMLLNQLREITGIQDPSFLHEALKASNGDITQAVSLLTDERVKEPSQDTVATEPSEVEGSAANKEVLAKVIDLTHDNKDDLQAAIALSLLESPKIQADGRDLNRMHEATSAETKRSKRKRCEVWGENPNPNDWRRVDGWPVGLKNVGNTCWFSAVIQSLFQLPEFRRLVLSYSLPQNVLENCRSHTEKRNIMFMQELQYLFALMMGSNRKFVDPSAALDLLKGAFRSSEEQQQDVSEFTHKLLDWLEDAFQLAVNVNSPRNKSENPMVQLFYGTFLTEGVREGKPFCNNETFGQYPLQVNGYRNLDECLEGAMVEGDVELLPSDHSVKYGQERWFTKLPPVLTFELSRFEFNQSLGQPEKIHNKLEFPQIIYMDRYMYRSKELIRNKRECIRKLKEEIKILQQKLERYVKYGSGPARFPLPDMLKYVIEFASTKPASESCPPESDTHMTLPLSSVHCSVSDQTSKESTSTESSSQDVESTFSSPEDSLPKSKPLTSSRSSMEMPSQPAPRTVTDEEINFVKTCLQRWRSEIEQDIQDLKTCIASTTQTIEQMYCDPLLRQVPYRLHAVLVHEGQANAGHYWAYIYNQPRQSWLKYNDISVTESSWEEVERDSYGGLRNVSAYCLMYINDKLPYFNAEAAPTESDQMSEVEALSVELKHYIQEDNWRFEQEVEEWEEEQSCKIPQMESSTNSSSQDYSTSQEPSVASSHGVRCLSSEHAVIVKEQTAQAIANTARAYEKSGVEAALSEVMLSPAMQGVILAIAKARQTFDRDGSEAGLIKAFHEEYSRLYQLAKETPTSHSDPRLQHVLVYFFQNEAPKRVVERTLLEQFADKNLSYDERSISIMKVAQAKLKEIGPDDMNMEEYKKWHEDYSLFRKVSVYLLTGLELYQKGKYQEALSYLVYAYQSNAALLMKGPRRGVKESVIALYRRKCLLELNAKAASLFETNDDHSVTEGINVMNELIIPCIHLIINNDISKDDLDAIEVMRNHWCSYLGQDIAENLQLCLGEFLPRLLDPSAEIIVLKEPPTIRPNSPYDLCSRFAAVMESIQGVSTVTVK
Sequence of USP25 (Q9UHP3 whole entry): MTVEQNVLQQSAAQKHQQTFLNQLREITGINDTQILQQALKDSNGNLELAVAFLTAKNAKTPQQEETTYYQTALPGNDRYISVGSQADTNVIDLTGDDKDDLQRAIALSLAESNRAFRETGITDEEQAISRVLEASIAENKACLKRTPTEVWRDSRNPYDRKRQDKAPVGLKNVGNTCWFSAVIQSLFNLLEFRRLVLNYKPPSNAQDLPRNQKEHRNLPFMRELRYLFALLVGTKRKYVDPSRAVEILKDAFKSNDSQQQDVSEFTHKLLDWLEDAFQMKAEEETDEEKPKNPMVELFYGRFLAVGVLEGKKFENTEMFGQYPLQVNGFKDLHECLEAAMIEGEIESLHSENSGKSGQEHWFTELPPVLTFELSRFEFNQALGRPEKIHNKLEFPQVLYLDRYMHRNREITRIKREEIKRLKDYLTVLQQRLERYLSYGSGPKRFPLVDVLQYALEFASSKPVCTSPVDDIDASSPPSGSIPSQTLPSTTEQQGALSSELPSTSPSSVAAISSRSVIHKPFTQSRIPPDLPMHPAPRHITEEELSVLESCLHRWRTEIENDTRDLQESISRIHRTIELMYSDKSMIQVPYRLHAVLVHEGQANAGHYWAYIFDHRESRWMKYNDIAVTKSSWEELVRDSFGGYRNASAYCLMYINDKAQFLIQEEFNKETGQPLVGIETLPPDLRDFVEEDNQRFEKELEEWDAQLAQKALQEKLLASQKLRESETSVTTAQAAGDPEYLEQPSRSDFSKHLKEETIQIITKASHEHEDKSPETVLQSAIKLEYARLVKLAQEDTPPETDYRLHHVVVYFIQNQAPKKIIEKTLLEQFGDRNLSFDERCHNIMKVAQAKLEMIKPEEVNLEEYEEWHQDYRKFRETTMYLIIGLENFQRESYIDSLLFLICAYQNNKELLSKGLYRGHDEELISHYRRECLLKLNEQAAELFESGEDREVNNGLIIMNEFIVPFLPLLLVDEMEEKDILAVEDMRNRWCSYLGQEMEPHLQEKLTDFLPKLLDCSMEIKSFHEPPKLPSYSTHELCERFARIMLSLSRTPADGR

SMILES	IC50 [1]	IC50 [2]
Cc1ccc2c(N)c(C(=O)NCCc3ccc(N4CC[C@@H]5NCC[C@@H]54)cc3)sc2n1 (single isomer, unassigned) [Example I-93]	< 200 nM	< 200 nM
Cc1ccc2c(N)c(C(=O)NCCc3ccc(N4CC[C@H]5NCC[C@H]54)cc3)sc2n1 (single isomer, unassigned) [Example I-94]	200 to 2000 nM	200 to 2000 nM
Cc1ccc2c(N)c(C(=O)NC[C@@H](C)c3cc(F)c(N4CC5CCC(C4)N5)cc3F)sc2n1 (single isomer, unassigned) [Example I-97]	200 to 2000 nM	2000 to 10000 nM
Cc1ccc2c(N)c(C(=O)NC[C@H](C)c3cc(F)c(N4CC5CCC(C4)N5)cc3F)sc2n1 (single isomer, unassigned) [Example I-98]	< 200 nM	200 to 2000 nM
C[C@H](CNC(=O)c1sc2ncc(F)cc2c1N)c1cc(F)c(N2CC3CCC(C2)N3)cc1F (single isomer, unassigned) [Example I-101]	2000 to 10000 nM	2000 to 10000 nM
C[C@@H](CNC(=O)c1sc2ncc(F)cc2c1N)c1cc(F)c(N2CC3CCC(C2)N3)cc1F (single isomer, unassigned) [Example I-102]	2000 to 10000 nM	2000 to 10000 nM
Cc1ccc2c(N)c(C(=O)NC[C@@H](C)c3ccc(N4CC5CCC(C4)N5)cc3F)sc2n1 (single isomer, unassigned) [Example I-103]	200 to 2000 nM	200 to 2000 nM
Cc1ccc2c(N)c(C(=O)NC[C@H](C)c3ccc(N4CC5CCC(C4)N5)cc3F)sc2n1 (single isomer, unassigned) [Example I-104]	200 to 2000 nM	200 to 2000 nM
Cc1ccc2c(N)c(C(=O)NC[C@@H](C)c3ccc(N4CC5CCC(C4)N5)c(F)c3)sc2n1 (single isomer, unassigned) [Example I-105]	200 to 2000 nM	200 to 2000 nM
Cc1ccc2c(N)c(C(=O)NC[C@H](C)c3ccc(N4CC5CCC(C4)N5)c(F)c3)sc2n1 (single isomer, unassigned) [Example I-106]	200 to 2000 nM	2000 to 10000 nM
Cc1nc2sc(C(=O)NC[C@@H](C)c3ccc(N4CC5CCC(C4)N5)c(F)c3)c(N)c2cc1F (single isomer, unassigned) [Example I-107]	200 to 2000 nM	10000 to 25000 nM
Cc1nc2sc(C(=O)NC[C@H](C)c3ccc(N4CC5CCC(C4)N5)c(F)c3)c(N)c2cc1F (single isomer, unassigned) [Example I-108]	200 to 2000 nM	200 to 2000 nM
Cc1ccc2c(N)c(C(=O)NC[C@@H](C)c3ccc(N4CC5CCC(C4)N5)c(C#N)c3)sc2n1 (single isomer, unassigned) [Example I-109]	200 to 2000 nM	2000 to 10000 nM
Cc1ccc2c(N)c(C(=O)NC[C@H](C)c3ccc(N4CCNCC4)cc3)sc2n1 (single isomer, unassigned) [Example I-202]	200 to 2000 nM	–
Cc1ccc2c(N)c(C(=O)NCCc3ccc(N4CCNCC4)c(C(F)(F)F)c3)sc2n1 [Compound I-3]	200 to 2000 nM	–
Cc1ccc2c(N)c(C(=O)NCCc3cc(F)c(N4CCNCC4)c(F)c3)sc2n1 [Compound I-4]	< 200 nM	–
Cc1ccc2c(N)c(C(=O)NCCc3cc(F)c(N4CCNCC4)c(Cl)c3)sc2n1 [Compound I-8]	< 200 nM	–
Cc1nc2sc(C(=O)NCCc3ccc(N4CCNCC4)c(Cl)c3)c(N)c2cc1F [Compound I-9]	200 to 2000 nM	–
Cc1cnc2sc(C(=O)NCCc3ccc(N4CCNCC4)c(Cl)c3)c(N)c2c1 [Compound I-32]	2000 to 10000 nM	–
Cc1ccc2c(N)c(C(=O)NCCc3cc(F)c(N4CCNCC4)c(F)c3F)sc2n1 [Compound I-35]	< 200 nM	–
Nc1c(C(=O)NCCc2ccc(N3CCNCC3)c(Cl)c2)sc2ncc(F)cc12 [Compound I-39]	2000 to 10000 nM	–

SMILES	IC50 [1]	IC50 [2]
Cc1ccc2c(N)c(C(=O)NCCc3c(F)cc(N4CCNCC4)cc3F)sc2n1 [Compound I-42]	200 to 2000 nM	–
Cc1ccc2c(N)c(C(=O)NCCc3cc(F)c(N4CC5CCC(C4)N5)c(F)c3)sc2n1 [Compound I-45]	< 200 nM	–
Cc1nc2sc(C(=O)NCCc3cc(F)c(N4CCNCC4)cc3F)c(N)c2cc1F [Compound I-46]	200 to 2000 nM	–
CN[C@@H]1CCN(c2cc(F)c(CCNC(=O)c3sc4nc(C)ccc4c3N)cc2F)C1 [Compound I-49]	< 200 nM	–
CN[C@H]1CCN(c2cc(F)c(CCNC(=O)c3sc4nc(C)ccc4c3N)cc2F)C1 [Compound I-50]	200 to 2000 nM	–
COc1ccc2c(N)c(C(=O)NCCc3cc(F)c(N4CCNCC4)cc3F)sc2n1 [Compound I-51]	< 200 nM	–
CCc1nc2sc(C(=O)NCCc3cc(F)c(N4CCNCC4)cc3F)c(N)c2cc1F [Compound I-55]	< 200 nM	–
Nc1c(C(=O)NCCc2ccc(N3CCNCC3)cc2)sc2nc(Cl)ccc12 [Compound I-57]	200 to 2000 nM	–
Cc1ccc2c(N)c(C(=O)NCCc3ccc(N4CC5CNCC(C4)O5)cc3)sc2n1 [Compound I-66]	< 200 nM	–
Cc1ccc2c(N)c(C(=O)NCCc3ccc(N4CCNCC4)c(C)c3)sc2n1 [Example I-74, 3-Amino-6-methyl-N-(3-methyl-4-(piperazin-1-yl)phenethyl)thieno[2,3-b]pyridine-2-carboxamide]	< 200 nM	–
Cc1ccc2c(N)c(C(=O)NCCc3ccc(-n4ncc5c4CNC5)c(F)c3)sc2n1 [Example I-80]	2000 to 10000 nM	–
Cc1ccc2c(N)c(C(=O)NCCc3cc(F)c(C4CCNCC4)cc3F)sc2n1 [Example I-113, 3-Amino-N-(2,5-difluoro-4-(piperidin-4-yl)phenethyl)-6-methylthieno[2,3-b]pyridine-2-carboxamide]	< 200 nM	–
Nc1c(C(=O)NCCc2ccc(N3CCNCC3)cc2)sc2nc(C3CC3)ccc12 [Example I-114, 3-Amino-6-cyclopropyl-N-(4-(piperazin-1-yl)phenethyl)thieno[2,3-b]pyridine-2-carboxamide]	< 200 nM	–
Cc1ccc2c(N)c(C(=O)NCCc3ccc(N4CC[C@@H](N(C)C)C4)cc3)sc2n1 [Example I-117]	200 to 2000 nM	–
Cc1ccc2c(N)c(C(=O)NCCc3ccc(N4CC[C@H](N(C)C)C4)cc3)sc2n1 [Example I-118]	200 to 2000 nM	–
Cc1ccc2c(N)c(C(=O)NCCc3ccc(N4CCN(CCN5CCCC5)CC4)cc3)sc2n1 [Example I-119]	2000 to 10000 nM	–
Cc1ccc2c(N)c(C(=O)NCCc3ccc(N4CCn5cncc5C4)cc3)sc2n1 [Example I-120]	< 200 nM	–
CNc1ccc2c(N)c(C(=O)NCCc3ccc(N4CCNCC4)cc3)sc2n1 [Example I-187]	200 to 2000 nM	–
Cc1ccc2c(N)c(C(=O)NC[C@@H](C)c3cc(F)c(N4CCNCC4)cc3F)sc2n1 [Example I-207]	200 to 2000 nM	–
Cc1ccc2c(N)c(C(=O)NCCc3cc(F)c(N4CCN[C@H](C)C4)cc3F)sc2n1 [Example I-209, (R)-3-amino-N-(2,5-difluoro-4-(3-methylpiperazin-1-yl)phenethyl) -6-methylthieno[2,3-b]pyridine-2-carboxamide]	10000 to 25000 nM	–
